Our source for the Ki values is US7332501B2, “Indol-3-yl-carbonyl-spiro-piperidine derivatives as V1a receptor antagonists” (Hoffmann-La Roche Inc., priority 2005, dated 2008).

SMILES strings stand for the structures.

In this test the target is T1, human V1a receptor (Homo sapiens, UniProt P37288).
T1 construct: expressed in transfected cells; host or cells: HEK293 cells, transiently transfected; cell membranes
T1 sequence (P37288 whole entry): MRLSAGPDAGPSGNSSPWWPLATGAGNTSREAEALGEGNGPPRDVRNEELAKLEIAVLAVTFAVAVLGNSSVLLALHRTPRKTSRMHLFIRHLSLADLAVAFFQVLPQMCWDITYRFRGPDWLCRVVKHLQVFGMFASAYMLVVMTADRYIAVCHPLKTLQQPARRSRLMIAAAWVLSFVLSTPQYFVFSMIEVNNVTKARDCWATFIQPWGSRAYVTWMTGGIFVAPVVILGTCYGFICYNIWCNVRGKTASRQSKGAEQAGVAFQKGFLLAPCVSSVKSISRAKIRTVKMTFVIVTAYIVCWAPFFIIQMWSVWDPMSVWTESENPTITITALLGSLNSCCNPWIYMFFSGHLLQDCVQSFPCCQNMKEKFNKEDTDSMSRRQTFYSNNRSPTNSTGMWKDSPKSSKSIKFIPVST
In words: human V1a receptor binding (3H-Vasopressin SPA, HEK293 membranes). To be noted: displacement of 4 nM 3H-Vasopressin, membranes of HEK293 cells transiently transfected with human V1a receptor; Ki from IC50 by Cheng-Prussoff. In a few lines: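 Ki derived by Cheng-Prusoff from IC50 curves normalised to specific binding. Serially diluted compounds (in 2% DMSO) competed with 3H-vasopressin (4 nM working solution) for 1 h at room temperature on SPA beads bearing membranes of transiently transfected HEK293 cells; unlabelled vasopressin defined non-specific counts.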
As to `O=C1OC2(CCN(C(=O)c3cn(C(=O)N4CCCCC4)c4cc(Cl)ccc34)CC2)c2ccccc21` [Example 108, 1′-{[6-Chloro-1-(piperidin-1-ylcarbonyl)-1H-indol-3-yl]carbonyl}-3H-spiro[2-benzofuran-1,4′-piperidin]-3-one], the Ki came to 6.2 nM.
In the case of `CC(C)(C)OC(=O)Cn1cc(C(=O)N2CCC3(CC2)OC(=O)c2cc(F)ccc23)c2ccc(Cl)cc21` [Example 112, tert-Butyl {6-chloro-3-[(5-fluoro-3-oxo-1′H,3H-spiro[2-benzofuran-1,4′-piperidin]-1′-yl)carbonyl]-1H-indol-1-yl}acetate], the Ki was determined as 2 nM.
On to `Cc1c(C(=O)N2CCC3(CC2)OCc2ccccc23)c2ccccc2n1CC1CCCCC1` [Example 46, 1′-{[1-(cyclohexylmethyl)-2-methyl-1H-indol-3-yl]carbonyl}-3H-spiro[2-benzofuran-1,4′-piperidine]], for which the affinity corresponds to a Ki of 0.8 nM. This Ki is about 2.5-fold lower than that of the compound before.
`O=C1OC2(CCN(C(=O)c3cn(CC4(F)COC4)c4cc(Cl)ccc34)CC2)c2ccccc21` [Example 189, 1′-({6-Chloro-1-[(3-fluorooxetan-3-yl)methyl]-1H-indol-3-yl}carbonyl)-3H-spiro[2-benzofuran-1,4′-piperidin]-3-one] showed a Ki of 1.7 nM.
Regarding `O=C(c1cn(Cc2ccccc2)c2ccccc12)N1CCC2(C=Cc3ccccc32)CC1` [Example 3, 1′-[(1-benzyl-1H-indol-3-yl)carbonyl]spiro[indene-1,4′-piperidine]], the affinity corresponds to a Ki of 10.1 nM.
With `COCC1(Cn2cc(C(=O)N3CCC4(CC3)OCc3ccccc34)c3ccc(Cl)cc32)CC1` [Example 244, 1′-[(6-Chloro-1-{[1-(methoxymethyl)cyclopropyl]methyl}-1H-indol-3-yl)carbonyl]-3H-spiro[2-benzofuran-1,4′-piperidine]], the Ki stood at 2.6 nM.
Take `O=C(c1cn(CC2CN(Cc3ccccc3)CCO2)c2cc(Cl)ccc12)N1CCC2(CC1)OCc1ccccc12` (stereo not drawn) [Example 232, 1′-({1-[(4-Benzylmorpholin-2-yl)methyl]-6-chloro-1H-indol-3-yl}carbonyl)-3H-spiro[2-benzofuran-1,4′-piperidine]]: the Ki came to 5 nM.
Then `O=C(c1cn(CCN2CCOCC2)c2cc(Cl)ccc12)N1CCC2(CC1)OCc1ccccc12` [Example 256, 1′-{[6-Chloro-1-(2-morpholin-4-ylethyl)-1H-indol-3-yl]carbonyl}-3H-spiro[2-benzofuran-1,4′-piperidine]], with 2.4 nM; and `O=C1OC2(CCN(C(=O)c3cn(Cc4cc(F)cc(F)c4)c4cc(Cl)ccc34)CC2)c2ccc(F)cc21` [Example 142, 1′-{[6-Chloro-1-(3,5-difluorobenzyl)-1H-indol-3-yl]carbonyl}-5-fluoro-3H-spiro[2-benzofuran-1,4′-piperidin]-3-one], with 0.6 nM; and `Cc1nc(Cn2cc(C(=O)N3CCC4(CC3)OCc3ccccc34)c3ccc(Cl)cc32)c(C)o1` [Example 242], with 2.2 nM.
For the compound `CN(C)C(=O)Cn1cc(C(=O)N2CCC3(CC2)CNc2ccccc23)c2ccc(Cl)cc21` [Example 100, 2-[6-Chloro-3-(1,2-dihydro-1′H-spiro[indole-3,4′-piperidin]-1′-ylcarbonyl)-1H-indol-1-yl]-N,N-dimethylacetamide], the inhibition constant Ki is 3.4 nM.
`O=C1OC2(CCN(C(=O)c3c[nH]c4cc(Cl)ccc34)CC2)c2cc(Cl)ccc21` [Example 20, 6-chloro-1′-[(6-chloro-1H-indol-3-yl)carbonyl]-3H-spiro[2-benzofuran-1,4′-piperidin]-3-one] showed a Ki of 15.8 nM.
Then `O=C1OC2(CCN(C(=O)c3c4n(c5cc(Cl)ccc35)CCNC4=O)CC2)c2ccc(F)cc21` [Example 176, 1′-[(7-Chloro-1-oxo-1,2,3,4-tetrahydropyrazino[1,2-a]indol-10-yl)carbonyl]-5-fluoro-3H-spiro[2-benzofuran-1,4′-piperidin]-3-one], with 14.8 nM; and `Cc1noc(C)c1Cn1cc(C(=O)N2CCC3(CC2)OCc2ccccc23)c2ccc(Cl)cc21` [Example 241], with 1.5 nM; and `O=C(c1cn(CC2CO2)c2cc(Cl)ccc12)N1CCC2(CC1)OCc1ccccc12` (stereo not drawn) [Example 258, 1′-{[6-Chloro-1-(oxiran-2-ylmethyl)-1H-indol-3-yl]carbonyl}-3H-spiro[2-benzofuran-1,4′-piperidine]], with 3.7 nM.
Consider `CCN(CC)C(=O)Cn1cc(C(=O)N2CCC3(CC2)OC(=O)c2ccccc23)c2ccccc21` [Example 203, N,N-Diethyl-2-{3-[(3-oxo-1′H,3H-spiro[2-benzofuran-1,4′-piperidin]-1′-yl)carbonyl]-1H-indol-1-yl}acetamide], for which the inhibition constant (Ki) is 11.7 nM.
Take `Cc1c(C(=O)N2CCC3(CC2)OCc2ccccc23)c2ccccc2n1Cc1ccc(C#N)cc1` [Example 51, 4-{[2-methyl-3-(1′H,3H-spiro[2-benzofuran-1,4′-piperidin]-1′-ylcarbonyl)-1H-indol-1-yl]methyl}benzonitrile]: the Ki was found to be 5.9 nM. This Ki is about 2-fold lower than that of the compound before.
`O=C(Cn1cc(C(=O)N2CCC3(CC2)OCc2ccccc23)c2ccc(Cl)cc21)N1CCCCC1` [Example 204, 1′-{[6-Chloro-1-(2-oxo-2-piperidin-1-ylethyl)-1H-indol-3-yl]carbonyl}-3H-spiro[2-benzofuran-1,4′-piperidine]]: the Ki worked out at 1.1 nM. This Ki is about 5.4-fold lower than that of the compound before.
As for `CC1CCN(C(=O)c2[nH]c3cc(Cl)ccc3c2C(=O)N2CCC3(CC2)OC(=O)c2cc(F)ccc23)CC1` [Example 24, 1′-({6-chloro-2-[(4-methylpiperidin-1-yl)carbonyl]-1H-indol-3-yl}carbonyl)-5-fluoro-3H-spiro[2-benzofuran-1,4′-piperidin]-3-one], affinity was put at a Ki of 33.1 nM.
Consider `O=C(Cn1cc(C(=O)N2CCC3(CC2)CNc2ccccc23)c2ccc(Cl)cc21)c1ccccn1` [Example 101, 2-[6-Chloro-3-(1,2-dihydro-1′H-spiro[indole-3,4′-piperidin]-1′-ylcarbonyl)-1H-indol-1-yl]-1-pyridin-2-ylethanone], for which the affinity corresponds to a Ki of 27.9 nM.
Take `O=C1OC2(CCN(C(=O)c3c[nH]c4cc(Cl)ccc34)CC2)c2ccccc21` [Example 16, 1′-[(6-chloro-1H-indol-3-yl)carbonyl]-3H-spiro[2-benzofuran-1,4′-piperidin]-3-one]: the Ki came out at 4.4 nM.
The value for `CNC(=O)Cn1cc(C(=O)N2CCC3(CC2)NC(=O)c2ccccc23)c2ccc(Cl)cc21` [Example 283, 2-{6-Chloro-3-[(3-oxo-2,3-dihydro-1′H-spiro[isoindole-1,4′-piperidin]-1′-yl)carbonyl]-1H-indol-1-yl}-N-methylacetamide] was 63.1 nM.
In turn, `O=C1OC2(CCN(C(=O)c3cn(CCc4ccncc4)c4cc(Cl)ccc34)CC2)c2ccc(F)cc21` [Example 167, 1′-{[6-Chloro-1-(2-pyridin-4-ylethyl)-1H-indol-3-yl]carbonyl}-5-fluoro-3H-spiro[2-benzofuran-1,4′-piperidin]-3-one] displayed a Ki of 3 nM. This Ki lies about 21-fold lower than the previous one.
Then `O=C1OC2(CCN(C(=O)c3cn(Cc4ccccn4)c4cc(Cl)ccc34)CC2)c2ccccc21` [Example 180, 1′-{[6-Chloro-1-(pyridin-2-ylmethyl)-1H-indol-3-yl]carbonyl}-3H-spiro[2-benzofuran-1,4′-piperidin]-3-one], with 1.5 nM.
`O=C1OC2(CCN(C(=O)c3cn(Cc4ccccn4)c4cc(Cl)ccc34)CC2)c2ccc(F)cc21` [Example 171, 1′-{[6-Chloro-1-(pyridin-2-ylmethyl)-1H-indol-3-yl]carbonyl}-5-fluoro-3H-spiro[2-benzofuran-1,4′-piperidin]-3-one]: the Ki amounted to 2.7 nM.
`COc1ccccc1-c1nc(Cn2c(C)c(C(=O)N3CCC4(CC3)OCc3ccccc34)c3ccccc32)c(C)o1` [Example 58, 1′-[(1-{[2-(2-methoxyphenyl)-5-methyl-1,3-oxazol-4-yl]methyl}-2-methyl-1H-indol-3-yl)carbonyl]-3H-spiro[2-benzofuran-1,4′-piperidine]] showed a Ki of 12.3 nM. This Ki is about 4.6-fold higher than that of the compound before.
`COCC1(Cn2cc(C(=O)N3CCC4(CC3)OC(=O)c3cc(F)ccc34)c3ccc(Cl)cc32)CC1` [Example 190, 1′-[(6-Chloro-1-{[1-(methoxymethyl)cyclopropyl]methyl}-1H-indol-3-yl)carbonyl]-5-fluoro-3H-spiro[2-benzofuran-1,4′-piperidin]-3-one] had a Ki of 2.6 nM.
`Cc1cc(Cn2cc(C(=O)N3CCC4(CC3)OCc3ccccc34)c3ccc(Cl)cc32)nn1C` [Example 240]: the Ki worked out at 2 nM.
The value for `CC(C)(C)OC(=O)N1CCn2c(c(C(=O)N3CCC4(CC3)OCc3ccccc34)c3ccccc32)C1` [Example 274, tert-Butyl 10-(1′H,3H-spiro[2-benzofuran-1,4′-piperidin]-1′-ylcarbonyl)-3,4-dihydropyrazino[1,2-a]indole-2(1H)-carboxylate] was 25.1 nM; that for `O=C(Cn1cc(C(=O)N2CCC3(CC2)OC(=O)c2ccccc23)c2ccc(Cl)cc21)c1cc(F)ccc1F` [Example 136, 1′-({6-Chloro-1-[2-(2,5-difluorophenyl)-2-oxoethyl]-1H-indol-3-yl]carbonyl)-3H-spiro[2-benzofuran-1,4′-piperidin]-3-one] was 3 nM; that for `Cc1c(C(=O)N2CCC3(CC2)OC(=O)c2ccc(OCCO)cc23)c2ccccc2n1Cc1ccccc1` [Example 122, 1′-[(1-benzyl-2-methyl-1H-indol-3-yl)carbonyl]-6-(2-hydroxyethoxy)-3H-spiro[2-benzofuran-1,4′-piperidin]-3-one] was 5.2 nM.
For `O=C1OC2(CCN(C(=O)c3cn(Cc4ccc(Cl)nc4)c4cc(Cl)ccc34)CC2)c2ccc(F)cc21` [Example 164, 1′-({6-Chloro-1-[(6-chloropyridin-3-yl)methyl]-1H-indol-3-yl}carbonyl)-5-fluoro-3H-spiro[2-benzofuran-1,4′-piperidin]-3-one], affinity was put at a Ki of 2.9 nM.
Then `O=C(c1cn(Cc2ccccc2)c2ccccc12)N1CCC2(CC1)OCc1ccccc12` [Example 68, 1′-[(1-benzyl-1H-indol-3-yl)carbonyl]-3H-spiro[2-benzofuran-1,4′-piperidine]], with 6.9 nM.
